Reference: ChEMBL document CHEMBL5143558, “Synthesis of sorbicillinoid analogues with anti-inflammation activities” (Bioorg Med Chem, 2022)
Active and inactive are the calls of the source. The calls are words filed in the database; no cut-off is given here.

Legend:
RAW264.7 [1] = test: Anti-inflammatory activity in mouse RAW264.7 cells assessed as inhibition of LPS-induced NO production at 10 uM; type: functional, cell-based
[2] = Toxicity in mouse RAW264.7 cells assessed as reduction in cell vaibility at 10 uM; type: cell-based; conditions: raw264.7, 10 µM
RAW264.7 [3] = test: Anti-inflammatory activity in mouse RAW264.7 cells assessed as inhibition of LPS-induced iNOS protein expression at 10 uM incubated for 24 hrs by Western blot analysis; type: functional, cell-based
RAW264.7 [4] = test: Anti-inflammatory activity in mouse RAW264.7 cells assessed as inhibition of LPS-induced p-NFkappaB protein expression at 10 uM incubated for 24 hrs by Western blot analysis; type: functional, cell-based
RAW264.7 [5] = test: Anti-inflammatory activity in mouse RAW264.7 cells assessed as inhibition of LPS-induced NO production at 20 uM; type: functional, cell-based
RAW264.7 [6] = test: Anti-inflammatory activity in mouse RAW264.7 cells assessed as inhibition of LPS-induced NO production at 1 to 20 uM incubated for 24 hrs; type: functional, cell-based; conditions: dose 1-20 µM, DDE = dose-dependent effect
RAW264.7 [7] = test: Anti-inflammatory activity in mouse RAW264.7 cells assessed as inhibition of LPS-induced iNOS protein expression at 1 to 20 uM incubated for 24 hrs by Western blot analysis; type: functional, cell-based; conditions: dose 1-20 µM, DDE = dose-dependent effect
[8] = Toxicity in mouse RAW264.7 cells assessed as reduction in cell vaibility at 20 uM incubated for 24 hrs; type: cell-based; conditions: raw264.7, 24 h

Row | Structure (SMILES) | inhibition (RAW264.7 [1]) | Activity [2] | inhibition (RAW264.7 [3]) | inhibition (RAW264.7 [4]) | inhibition (RAW264.7 [5]) | inhibition (RAW264.7 [6]) | inhibition (RAW264.7 [7]) | Activity [8]
1 | COc1cc(/C=C/C(=O)c2cc(C)c(OC)c(C)c2OC)cc(OC)c1OC | Active | Non-Toxic | Active | – | – | – | – | –
2 | COc1ccc(/C=C/C(=O)c2cc(C)c(O)c(C)c2O)cc1 | Active | Non-Toxic | Active | – | – | – | – | –
3 | Cc1cc(C(=O)CCc2ccccc2)c(O)c(C)c1O | – | Non-Toxic | – | Active | – | – | – | –
4 | Cc1cc(C(=O)/C=C/c2ccccc2)c(O)cc1O | Active | Non-Toxic | Active | – | – | – | – | –
5 | Cc1ccc(OC(=O)/C=C/c2ccc(Cl)cc2)c(C)c1OC(=O)/C=C/c1ccc(Cl)cc1 | Active | Non-Toxic | Active | – | – | – | – | –
6 | COc1cc(/C=C/C(=O)CC(=O)/C=C/c2ccc(O)c(OC)c2)ccc1O | – | – | – | – | Active | – | – | –
7 | COc1cc(/C=C/C(=O)c2cc(C)c(O)c(C)c2O)cc(OC)c1OC | Active | Non-Toxic | Active | – | – | Dde | Dde | Non-Toxic
8 | CC(C)=CC(=O)Oc1c(C)cc(C(=O)C=C(C)C)c(O)c1C | Active | Non-Toxic | Active | – | – | – | – | –
9 | COc1cc(O)c(C(=O)/C=C/c2ccccc2)cc1C | Active | Non-Toxic | Active | – | – | – | – | –
10 | Cc1cc(C(=O)/C=C/c2ccc(Cl)cc2)c(O)c(C)c1OC(=O)/C=C/c1ccc(Cl)cc1 | – | Non-Toxic | Active | – | – | – | – | –
11 | C/C=C/C(=O)c1cc(C)c(OC)c(C)c1OC | Active | Non-Toxic | Active | – | – | – | – | –
12 | Cc1cc(C(=O)/C=C/c2ccc3c(c2)OCO3)c(O)c(C)c1O | – | Non-Toxic | Active | – | – | – | – | –
13 | C[C@]12CCC(=O)C=C1CC[C@@H]1[C@@H]2[C@@H](O)C[C@@]2(C)[C@H]1CC[C@]2(O)C(=O)CO | – | – | – | – | Active | – | – | –
14 | C/C=C/C(=O)Oc1c(C)cc(C(=O)/C=C/C)c(O)c1C | Active | Non-Toxic | Active | – | – | – | – | –
15 | C/C=C/C=C/C(=O)Oc1c(C)cc(C(=O)/C=C/C=C/C)c(O)c1C | Active | Non-Toxic | Active | – | – | – | – | –
16 | C/C=C/C=C/C(=O)c1cc(C)c(O)c(C)c1O | Active | Non-Toxic | – | Active | – | – | – | –

Row | Structure (SMILES) | inhibition (RAW264.7 [1]) | Activity [2] | inhibition (RAW264.7 [3]) | inhibition (RAW264.7 [4]) | inhibition (RAW264.7 [5]) | inhibition (RAW264.7 [6]) | inhibition (RAW264.7 [7]) | Activity [8]
17 | COc1cc(OC)c(C(=O)/C=C/c2ccc(F)cc2)cc1C | Active | Non-Toxic | Active | – | – | – | – | –
18 | Cc1cc(C(=O)/C=C/c2ccc(F)cc2)c(O)cc1O | Active | Non-Toxic | Active | – | – | – | – | –
19 | C/C=C/C(=O)c1cc(C)c(O)cc1O | Active | Non-Toxic | Active | – | – | – | – | –
20 | COc1cc(O)c(C(=O)/C=C/c2ccc(F)cc2)cc1C | Active | Non-Toxic | Active | – | – | – | – | –
21 | C/C=C/C(=O)c1cc(C)c(OC)cc1OC | Active | Non-Toxic | Active | – | – | – | – | –
22 | COc1cc(OC)c(C(=O)/C=C/c2ccccc2)cc1C | Active | Non-Toxic | Active | – | – | – | – | –
23 | CC(C)=CC(=O)Oc1ccc(C)c(OC(=O)C=C(C)C)c1C | – | Non-Toxic | – | Active | – | – | – | –
24 | C/C=C/C(=O)c1cc(C)c(O)c(C)c1O | Active | Non-Toxic | Active | – | – | – | – | –
25 | Cc1cc(C(=O)/C=C/c2ccc(F)cc2)c(O)c(C)c1O | Active | Non-Toxic | Active | – | – | Dde | Dde | Non-Toxic
26 | C/C=C/C=C/C(=O)Oc1ccc(C)c(OC(=O)/C=C/C=C/C)c1C | – | Non-Toxic | – | – | – | – | – | –
27 | COc1cc(OC)c(C(=O)/C=C/c2cc(OC)c(OC)c(OC)c2)cc1C | Active | Non-Toxic | Active | – | – | – | – | –
28 | Cc1ccc(/C=C/C(=O)c2cc(C)c(O)c(C)c2O)cc1 | Active | Non-Toxic | Active | – | – | – | – | –
29 | COc1ccc(/C=C/C(=O)c2cc(C)c(OC)cc2OC)cc1 | – | Non-Toxic | – | – | – | – | – | –
30 | Cc1cc(C(=O)/C=C/c2ccccc2)c(O)c(C)c1O | Active | Non-Toxic | Active | Active | – | – | – | –
31 | Cc1cc(C(=O)/C=C/c2ccc(F)cc2)c(O)c(C)c1OC(=O)/C=C/c1ccc(F)cc1 | – | Non-Toxic | Active | – | – | – | – | –
